For data set [1], the system named is cytokines and chemokines. The note with it: cited from earlier work.
For data set [2], the system named is wild-type mice subjected to CLP. To be noted: cited from earlier work.
Data set [3] relates to lung myeloperoxidase (MPO). The note with it: cited from earlier work.
The test system of data set [4] is collagenolytic MMPs. To be noted: in words, cited from earlier work.
Data set [5] concerns the target MMP-2 (Homo sapiens, UniProt P08253). To be noted: cited from earlier work; for Ki: read-out: Ki(app) MMP-2.
The target in data set [6] is T1, MMP-1 (Homo sapiens, UniProt P03956).
T1 sequence (P03956 100-469): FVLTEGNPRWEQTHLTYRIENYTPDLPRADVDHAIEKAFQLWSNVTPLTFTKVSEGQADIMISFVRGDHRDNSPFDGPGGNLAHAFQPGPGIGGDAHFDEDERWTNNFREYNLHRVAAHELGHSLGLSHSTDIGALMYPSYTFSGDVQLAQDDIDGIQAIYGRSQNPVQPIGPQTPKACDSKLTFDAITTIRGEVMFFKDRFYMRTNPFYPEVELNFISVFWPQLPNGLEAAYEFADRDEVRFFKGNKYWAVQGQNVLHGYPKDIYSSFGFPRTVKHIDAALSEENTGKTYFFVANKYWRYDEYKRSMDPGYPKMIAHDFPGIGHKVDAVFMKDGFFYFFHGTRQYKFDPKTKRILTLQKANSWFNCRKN
To be noted: in words; cited from earlier work.

The target in data set [7] is MT1-MMP (Homo sapiens, UniProt P50281). To be noted: cited from earlier work.
Data set [8] deals with MMP-9 (Homo sapiens, UniProt P14780). The note with it: cited from earlier work; for Ki: read-out: Ki(app) MMP-9.
Data set [9] in a line: CD thermal transition. Type of data set: physicochemical. The note with it: 25 °C, from thermal transition at 225 nm.
For data set [10] the following is noted: first generation THPI; cited from earlier work.

The source of these data is PMC6413923 (Journal of medicinal chemistry, 2017).

Where two headings read alike, the source gives them in different places.

Chain of MMP-9 (P14780 107-444 limits assumed): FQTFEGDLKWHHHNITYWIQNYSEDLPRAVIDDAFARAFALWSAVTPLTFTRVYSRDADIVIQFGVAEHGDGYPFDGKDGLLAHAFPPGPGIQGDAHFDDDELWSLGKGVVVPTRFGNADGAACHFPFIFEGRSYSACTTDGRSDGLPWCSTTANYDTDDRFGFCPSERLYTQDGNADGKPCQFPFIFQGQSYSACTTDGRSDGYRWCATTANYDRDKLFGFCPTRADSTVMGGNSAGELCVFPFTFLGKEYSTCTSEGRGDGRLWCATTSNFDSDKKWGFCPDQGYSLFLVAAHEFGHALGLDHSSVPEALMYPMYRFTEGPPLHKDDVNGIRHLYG
Chain of MMP-2 (P08253 110-465 limits assumed): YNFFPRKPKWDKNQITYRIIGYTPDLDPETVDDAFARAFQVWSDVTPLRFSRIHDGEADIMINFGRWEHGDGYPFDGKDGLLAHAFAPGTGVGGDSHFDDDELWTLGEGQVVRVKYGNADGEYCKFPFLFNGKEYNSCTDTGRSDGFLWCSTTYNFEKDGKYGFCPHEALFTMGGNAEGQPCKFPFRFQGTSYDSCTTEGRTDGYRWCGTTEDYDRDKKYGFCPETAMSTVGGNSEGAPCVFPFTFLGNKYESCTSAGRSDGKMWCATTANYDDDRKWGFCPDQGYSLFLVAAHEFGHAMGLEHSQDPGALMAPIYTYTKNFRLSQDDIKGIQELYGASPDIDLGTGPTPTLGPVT

As for `COc1ccc(S(=O)(=O)N2Cc3ccccc3C[C@@H]2C(=O)NO)cc1` [(3R)-(+) - [2-(4-methoxy-benzenesulfonyl)-1,2,3,4-tetrahydroisoquinoline-3-hydroxamate]], in [1], the “IL-1β in CLP mice” value is reported as “significantly reduced”, the “IL-6 in CLP mice” value is recorded as “significantly reduced”, the “MIP-1α in CLP mice” value is “significantly reduced” and the “TNF-α in CLP mice” value is “significantly reduced”. Also, the “survival of CLP mice” value in data set [2] is “improved survival”. In data set [3], the “whole lung MPO activity in CLP mice” value is listed as “reduced whole lung MPO activity”.
With “(Gly-Pro-Hyp)4-Gly-mep-Flp-Gly-Pro-Gln-GlyΨ{PO2H-CH2}Leu-Ala-Gly-Gln-Arg-Gly-Ile-Arg-Gly-mep-Flp-(Gly-Pro-Hyp)4-Tyr-NH2 [α1(I-III)GlyΨ{PO2H-CH2}Leu THPI]”, the “selectivity toward collagenolytic MMPs” value in data set [4] (first generation) is “selective toward collagenolytic MMPs”. In data set [4], the “inhibition of MMPs” value was “low nanomolar range”. Besides, in [5] (in words), the “inhibition of MMP-2” value was “effectively inhibits”. In data set [6], the “inhibition of MMP-1” value is “effectively inhibits”. The Ki in data set [7] (read-out: Ki MT1-MMP) is 120 nM. Besides, the “inhibition of MMP-9” value in [8] (in words) is recorded as “effectively inhibits”.
For the compound “(Gly-Pro-Hyp)5-Gly-Arg-Ile-Gly-His~Leu-Arg-Thr-Gln-Gly-Val-Arg-(Gly-Pro-Hyp)5-Tyr-NH2 [HLRT]”, in data set [9], the “% folded” value is 72%.
The same measure, in the same setting: next, “(Gly-Pro-Hyp)5-Gly-Arg-Ile-Gly-Phe~Leu-Arg-Thr-Gln-Gly-Val-Arg-(Gly-Pro-Hyp)5-Tyr-NH2 [FLRT]”: 79%; “(Gly-Pro-Hyp)5-Gly-Arg-Ile-Gly-Phe~Leu-Asp-Pro-Gln-Gly-Val-Arg-(Gly-Pro-Hyp)5-Tyr-NH2 [FLDP]”: 72%.
As to “(Gly-Pro-Hyp)6-Gly-Pro-Gln-Gly~Ile-His-Lys-Gln-Arg-Gly-Val-Arg-(Gly-Pro-Hyp)5-NH2 [IHK]”, in data set [9], the “% folded” value was 83%.
Still for that read-out and setting: next, “(Gly-Pro-Hyp)6-Gly-Pro-Gln-Gly~Ile-Tyr-Phe-Gln-Arg-Gly-Val-Arg-(Gly-Pro-Hyp)5-NH2 [IYF]”: 88%.
“(Gly-Pro-Hyp)6-Gly-Pro-Gln-Gly~Val-Gln-His-Gln-Arg-Gly-Val-Arg-(Gly-Pro-Hyp)5-NH2 [VQH]”: the “% folded” value in data set [9] is reported as 87%.
The same measure, in the same setting: in the case of “(Gly-Pro-Hyp)6-Gly-Pro-Gln-Gly~Val-Ser-Trp-Gln-Arg-Gly-Val-Arg-(Gly-Pro-Hyp)5-NH2 [VSW]” it was 92%.
As to “C6-(Gly-Pro-Hyp)4-Gly-Pro-Pro-GlyΨ{PO2H-CH2}Val-Val-Gly-Glu-Gln-Gly-Glu-Gln-Gly-Pro-Pro-(Gly-Pro-Hyp)4-NH2 [C6-α1(V)GlyΨ{PO2H-CH2}Val THPI]”, the “inhibition of MMPs” value in [4] is “low nanomolar range”. Moreover, the Tm in data set [10] is 25 °C. In addition, the Ki in data set [5] (10 °C) was 4.14 ± 0.47 nM; in data set [5] (37 °C) it was 19.2 ± 0.64 nM; in data set [8] (10 °C), 1.76 ± 0.05 nM; in data set [8] (37 °C) it was 1.29 nM. In addition, the “inhibition of MT1-MMP” value in data set [7] is given as “did not inhibit MT1-MMP”. In addition, the “inhibition of full-length (82 kDa) MMP-9 versus TIMP-1 resistant (65 kDa) MMP-9” value in data set [8] (comparison in words) is “similar”.
